In article PMC6383986, “Fragment-Based Covalent Ligand Screening Enables Rapid Discovery of Inhibitors for the RBR E3 Ubiquitin Ligase HOIP” (Journal of the American Chemical Society, 2019):

Columns and labels:
[1] = tested on: HEK293T cells overexpressing full-length HOIP, HOIL-1L, and SHARPIN; experiment: CellTiter-Glo Luminescent cell viability assay, transfected cells; format: cell-based; conditions: 17 h
Protocol: Thurston, Imperial College London. 2.3 × 10^6 cells were seeded into 100 mm Petri dishes in DMEM media supplemented with 10% v/v FBS (Biosera) and 1% v/v L-glutamine/penicillin/streptomycin (Sigma-Aldrich) and incubated at 37 °C overnight. The following morning the cells were transfected using either 6 µg pcDNA3 or 4.5 µg HOIP, 0.3 µg HOIL-1L and 1.2 µg SHARPIN as well as 450 ng pRDII Luc and 180 ng pRLTK (Promega) plasmids. 7 h after transfection, the cells were trypsinized and re-suspended in DMEM media supplemented with 1% v/v FBS (Biosera) and 1% v/v L-glutamine/penicillin/streptomycin (Sigma-Aldrich). […]
(§1) Reporter assays: After incubating the plates for 17 h, Firefly and Renilla Luciferase activity was analyzed using the Dual-Luciferase® Reporter Assay System (Promega) and a BertholdTech […]
(§2) with Mikrowin 2000 software version 4.41: using its injectors to inject 100 µL LAR II and 100 µL Stop&Glo (see manufacturer’s instructions; Promega #E1960). NF-κB regulated luciferase activity was first normalized to Renilla luciferase activity and then the fold activation relative to cells transfected with empty vector calculated. […]
Cell viability assays: After incubating the plates for 17 h in the presence of compound, cell viability was determined using the CellTiter-Glo® Luminescent Cell Viability Assay according to manufacturer’s instructions (Promega #G7571). […]

[2] = tested on: NF-κB activation in HEK293T cells overexpressing full length HOIP, HOIL-1L, and SHARPIN; experiment: NF-κB Luciferase reporter assay; format: cell-based; conditions: Homo sapiens, HEK-293T; overnight (17 h) treatment; estimated; read-out: IC50, inhibition of NF-κB activation
Protocol: suspensions were agitated at 4 °C overnight. The supernatants were removed and kept on ice, and the beads were washed with wash buffer (2 × 0.5 mL), PBS (2 × 0.5 mL), and 50 mM HEPES, 150 mM NaCl, pH 7.5 buffer (2 × 0.5 mL).
A polyubiquitination assay master mix was prepared by mixing E1, UbcH7, ubiquitin, MgCl2, in buffer (50 mM HEPES, 150 mM NaCl, pH 7.5). The solution (30 µL per sample) was added to the beads, and lastly ATP (0.6 µL of 100 mM stock) was added to initiate the reaction. Final concentrations were E1 (0.2 µM), UbcH7 E2 (1 µM), ubiquitin (10 µM), MgCl2 (4 mM), ATP (2 mM). The vials were incubated (Eppendorf Thermomixer) at 25 °C, 900 rpm for 1.5 h. […] All samples were analyzed by SDS PAGE and Western Blot (Figure 6C and Supplementary Figure S13) as described in sections 4.5 and 4.6. […]
as §1, §2
reader. […]

`COC(=O)/C=C/CNC(=O)c1cc2c([nH]c1=O)CCCC2` [Compound 11a] was tested, and the “effect on cell viability” value [1] was “neither compound had any effect on cell viability” and the IC50 [2] was 37 ± 4 µM.
